In patent US8906865B2, “Treatment of inflammation and/or endotoxic shock” (ISIS Innovation Limited, priority 2007, dated 2014):

Key:
[1] = tested on: Murine peritoneal macrophages (PMΦ); assay: Macrophage activation assay: LPS/IFNγ-induced inflammatory cytokine expression (ELISA, Luminex); type: cell-based, mouse; conditions: for Percentage inhibition of LPS/IFNγ-induced inflammatory cytokine expression: RANTES / Percentage inhibition of LPS/IFNγ-induced inflammatory cytokine expression: TNFα / Percentage inhibition of LPS/IFNγ-induced inflammatory cytokine expression: IL-1β / Percentage inhibition of LPS/IFNγ-induced inflammatory cytokine expression: IL-6 / Percentage inhibition of LPS/IFNγ-induced inflammatory cytokine expression: IL-12 p40: PMΦ; for Percentage inhibition of LPS/IFNγ-induced inflammatory cytokine expression: RANTES / Percentage inhibition of LPS/IFNγ-induced inflammatory cytokine expression: TNFα: pre-treatment 1 h (0.1 pM-100 nM), then LPS 100 ng/ml + IFNγ 20 ng/ml 15 h, optimal dose (1 pM Chemerin and C15, 100 pM C13 and C19); for Anti-inflammatory activity in the MΦ activation assay: peptides 0.1 pM-100 nM; for Suppression of LPS/IFNγ-induced RANTES secretion (FIG. 2B) / Suppression of LPS/IFNγ-induced TNFα expression (FIG. 2B): C13m 100 pM, C15m 1 pM, C17m 1 pM, pre-treatment 1 h then LPS/IFNγ 15 h; for Percentage inhibition of LPS/IFNγ-induced inflammatory cytokine expression: IL-1β / Percentage inhibition of LPS/IFNγ-induced inflammatory cytokine expression: IL-6 / Percentage inhibition of LPS/IFNγ-induced inflammatory cytokine expression: IL-12 p40: pre-treatment 1 h, then LPS/IFNγ 15 h, 1 pM Chemerin and C15; for Optimal dose (maximal response) for suppression of LPS/IFNγ-induced cytokine expression: macrophage activation assay
Protocol: Murine peritoneal macrophages (PMθ, also referred to as PMΦ herein) were cultured under various conditions: Untreated; LPS (100 ng/ml) and IFNγ (20 ng/ml) for 15 h; Chemerin (1 pM) pre-treatment for 1 h then LPS/IFNγ for 15 h; Leupeptin (protease inhibitor; 15 mg/ml) and Chemerin (1 pM) for 1 h then LPS/IFNγ for 15 h; or Dexamethasone (positive control; 1 μM pre-treatment for 1 h then LPS/IFNγ for 15 h.
Murine PMθ were cultured under various conditions: Untreated, LPS (100 ng/ml) and IFNγ (20 ng/ml) for 15 h; Chemerin peptides (at a concentration of 1 pM-100 nM) pre-treatment for 1 h then LPS/IFNγ for 15 h. […] Experiments were performed with triplicate determinations for each treatment. Representative data from five independent experiments employing cells from different groups of C57B16/J mice are shown. p<0.01 **; p<0.001 *** relative to LPS/IFNγ treated samples.
With reference to Table 1, anti-inflammatory activity of chemerin-derived peptides—Murine PMΦ were cultured as described for FIG. 1B and were challenged with LPS (100 ng/ml) and IFNγ (20 ng/ml) for 15 h with/without pre-treatment with peptides (0.1 pM-100 nM) for 1 h. […] Peptide sequences are: C11 (P144-A154; […]), C13 (P144-S156; […]), C15 (A140-A154; […]), C19 (A138-S156; […]; Seq ID: No. 37), N19 (E23-K41; […] Seq ID No: 44) and M20 (K86-K105; […] Seq ID No. 45). Control peptides: scrambled C15 (C15-S; […]) and mutant C15 (C15-M; […]; F148A & F153A). Data represent mean percentage inhibition of cytokine production by classically activated macrophages from 4-8 independent experiments as determined by ELISA and Luminex assay.
1 ml 2% BioGEL polyacrylamide beads in sterile Phosphate-Buffered Saline (PBS) were injected intraperitoneally (ip) into C57B1/6J mice. Four days after ip BioGEL administration, mice were sacrificed by the CO, method according to Home Office guidelines. Peritoneal cavities were flushed with 10 ml sterile PBS-2 mM EDTA to harvest BioGEL-evoked/elicited cellular infiltrate. Suspensions of harvested cells were centrifuged at 1000×g for 5 mins at 4° C. The supernatants were discarded and cell pellets were resuspended in 6 mls OptiMEM medium supplemented with 2 mM Glutamine, 50 units/ml Penicillin and 50 μg/ml Streptomycin. Macrophages were quantified following incubation on ice for 5-10 mins with Turk's solution using a haemocytometer. Cell suspensions (2 mls; 1.5×10^6/well) were plated in six-well tissue culture plates (35 mm diameter: Costar, UK) and allowed to adhere for 2 hours at 37° C. in a humidified atmosphere containing 5% CO2, to isolate macrophage populations by adherence. This gave greater than 95% purity assessed by cytospinning, staining of cells with Methylene Blue and Eosin and counting based on cellular morphology. Nonadherent cells (mainly granulocytes) were discarded and wells were washed three times with sterile PBS to remove loosely adherent or dead cells. […] To determine PTX sensitivity and dependency upon proteolysis, cells were pre-incubated with PTX (200 ng/ml) or Leupeptin (15 μg/ml). Additional cells were treated with peptides alone. Supernatants were harvested and stored at −20° C. until use in Enzyme-Linked Immunosorbance Assays (ELISAs) and Luminex assays. Cells were lysed to allow extraction of total RNA by the TRIZOL method. Lysates were stored at −80° C. until RNA extraction following manufacturer's guidelines (Qiagen, RNeasy Mini Prep Kit).
RANTES, Tumour necrosis factor (TNFα) and CCL9 concentrations in cell supernatants were assessed by ELISA. IL-12 p40, IL-10, IL-1β, TNFα, MCP-1 (Monocyte chemoattractant protein-1) and IL-6 levels were determined by Luminex multiplex bead assay (Bio-rad 6 plex assay). Lower limits of detection for ELISAs were 0.1-0.5 ng/ml and 10-50 pg/ml for Luminex assays.

[2] = tested on: PMΦ (peritoneal macrophages); assay: Secondary chemotaxis assay towards conditioned media from treated macrophages; type: cell-based, mouse; conditions: relative to LPS/IFNγ conditioned medium
From the text: Given the well established role of MΦ-derived chemoattractants in the recruitment of immune cells during inflammation (Glabinski, A. R., et al., (1998). Neuroimmunomodulation 5:166-171; Huang, D. J. et al., (2001). J. Exp. Med. 193:713-726), conditioned media was used from untreated MΦ and MΦ treated with chemerin+LPS/IFNγ, C15+LPS/IFNγ and LPS/IFNγ alone in chemotaxis assays to assess how suppression of MΦ activation by chemerin and the synthetic C-terminal peptide, C15 might affect further MΦ recruitment (See FIG. 4H).
Conditioned media from macrophages treated with C140+LPS/IFNγ, C15m+LPS/IFNγ, C17m+LPS/IFNγ and LPS/IFNγ alone were used in secondary chemotaxis assays to assess the potential pathophysiological repercussions associated with suppression of macrophage activation by C140 and its C-terminal peptides.
Cells (0.5×10^6) were allowed to migrate towards chemoattractant (Chemerin peptides) or conditioned media in the bottom well of a modified Boyden chamber over 4 h. Serum free media (SFM) was used as a negative control. Filters were fixed in 4% formalin, then nuclei were stained with DAPI and visualised. Bar graphs indicate mean Migration Index (Chemoattractant % threshold area/SFM % threshold area)±SEM for each treatment group. Each bar represents at least triplicate wells and 6 pictures taken per treatment. p<0.001 ***; p<0.01 ** significance is relative to LPS/IFNγ conditioned media unless otherwise stated. AB refers to anti-murine Chemerin antibody.
Cell migration was assessed by use of transwell membranes (ChemoTX, 6-mm diameter, 8-μm pore size). Briefly, BioGEL-elicited cells were harvested and placed on transwell membranes (250 000 cells/membrane in RPMI supplemented with 25 mM Hepes and 0.1% bovine serum albumin. Cells were allowed to migrate toward Chemerin peptides (1 pM-100 nM) for 4 h. Signal transduction via G protein-coupled receptors was blocked by preincubating cells with pertussis toxin (PTX, 200 ng/ml, Sigma-Aldrich) for 30 mins before placing cells on transwell membranes. Migrated cells on the underside of membranes were fixed (3% formaldehyde) and stained with DAPI. Migration was quantified as total pixel count of DAPI stained nuclei under the confocal microscope (2 photos/membrane and a minimum of 3 replicate wells per treatment). Images were analyzed using Metamorph Offline software to determine percentage threshold areas (TA) occupied by migrated cells. Migration indices were obtained by dividing treatment TA by serum-free media TA. For secondary chemotaxis assays ChemoTx 3-mm diameter, 8-μm pore membranes were used with 50 000 cells/membrane.

Molecule	Percentage inhibition of LPS/IFNγ-induced inflammatory cytokine expression: RANTES [1]	Percentage inhibition of LPS/IFNγ-induced inflammatory cytokine expression: TNFα [1]	Anti-inflammatory activity in the MΦ activation assay [1]	Macrophage chemotaxis towards conditioned media from treated + LPS/IFNγ macrophages (FIG. 5) [2]	Reduction of MΦ chemotaxis towards conditioned media from treated + LPS/IFNγ macrophages (FIG. 4H) [2]	Suppression of LPS/IFNγ-induced RANTES secretion (FIG. 2B) [1]	Suppression of LPS/IFNγ-induced TNFα expression (FIG. 2B) [1]	Percentage inhibition of LPS/IFNγ-induced inflammatory cytokine expression: IL-1β [1]	Percentage inhibition of LPS/IFNγ-induced inflammatory cytokine expression: IL-6 [1]	Percentage inhibition of LPS/IFNγ-induced inflammatory cytokine expression: IL-12 p40 [1]	Optimal dose (maximal response) for suppression of LPS/IFNγ-induced cytokine expression [1]	Pertussis toxin sensitivity of the effects on macrophages (FIG. 1D) ([1]; chemerin 0.1-1 pM ± PTX 200 ng/ml)
AGEDPHGYALPGQAA (Mutant C15) [C15-M, control peptide, mutant C15 (F148A & F153A), reference compound]	0%	0%	devoid of anti-inflammatory activity	–	–	–	–	–	–	–	–	–
AGEDPHGYFLPGQFA (listed as Mus sp.) [C15]	47%	61%	–	reduced chemotaxis	55%	41%	56%	54%	43%	47%	1 pM	–
GLFHDQAGPPAGYEF (Scrambled C15) [C15-S, control peptide, scrambled C15, reference compound]	0%	0%	devoid of anti-inflammatory activity	–	–	–	–	–	–	–	–	–
AGEDPHGYFLPGQFAFS (listed as Mus sp.) [C17m]	–	–	–	reduced chemotaxis	–	49%	66%	–	–	–	–	–
Chemerin: 140 amino acid mouse Chemerin protein of Sequence ID no: 34 (protein, listed as Mus sp.) TVGTEPELSETQRRSLQVALEEFHKHPPVQLAFQEIGVDRAEEVLFSAGTFVRLEFKLQQTNCPKKDWKKPECTIKPNGRRRKCLACIKMDPKGKILGRIVHCPILKQGPQDPQELQCIKIAQAGEDPHGYFLPGQFAFS	40%	70%	–	reduced chemotaxis	49%	–	–	60%	42%	54%	1 pM	pertussis toxin-sensitive
